# Assay results taken from patent publication US20100062441A1, “C-MET MUTATIONS AND USES THEREOF” (priority 2007, published 2010).
# Assays:
# Type in all cases: cell-based, human
# [1] = test system: reactive oxygen species (ROS) in MU melanoma cells; experiment: Reactive oxygen species measurement by DHE immunofluorescence; settings: 5 μM SU11274 for 12 hrs; HGF 40 ng/ml
# Method: 5×10^4 MU melanoma cells were plated in 35 mm petri dishes. After 24 hrs MU Melanoma cells were kept in serum free media containing 0.5% BSA with and without 5 μM SU11274 for 12 hrs. Cells were treated with 40 ng/ml HGF for 7.5 min, then treated with DHE 10 μM (molecular probes Inc, Eugene, Oreg.) for 30 min, after which they were visualized under a fluorescent Olympus microscope IX81, 20× objective, ND3 and Rhodamine filter sets. Fluorescence was then quantified using Image J and graphed.
# The endogenous levels of reactive oxygen species (ROS) was also analyzed in MU melanoma cells with and without HGF treatment using DHE by fluorescence microscopy. DHE is a redox sensitive probe that has widely been used to detect intracellular superoxide anion. The relative levels of ROS were increased in response to HGF by 47%, and SU11274 decreased the ROS response to HGF to 3%.
# MM-MC melanoma cells = experiment: Differentiation of melanoma cells (morphology); settings: 72 hrs with 5 μM SU11274
# Source text: (§1) Thus SU11274 could induce a differentiated phenotype in a wide variety of melanoma cells melanized, amelanotic, less and more differentiated melanoma cells.
# MM-RU melanoma cells = experiment: Differentiation of melanoma cells (morphology); settings: 72 hrs with 5 μM SU11274
# Source text: as §1
# [2] = test system: c-Met phosphorylation in SCCHN cell lines; experiment: c-Met phosphorylation and downstream signaling after HGF stimulation
# [3] = test system: c-Met dependent signaling in MU melanoma cells; experiment: Phosphorylation of c-Met and signaling molecules via HGF, immunoblotting
# Method: (§2) MU and MC cells that expressed c-Met were deprived of growth factors by incubation in serum free medium containing 0.5% BSA for 24 hours with or without SU11274 (5 μM). After treatment with or without SU11274 in serum free medium, cells were stimulated with or without HGF (EMD Biosciences, San Diego, Calif.) at 40 ng/ml for 7.5 minutes at 37° C. After harvesting, the cells were subjected to the standard procedures of immunoblotting. Antibodies specifically against phosphorylated c-Met, and other proteins are as described above.
# (§3) The ability of SU11274 to inhibit activation of c-Met was examined by immunoblotting. Treatment with HGF increased the autophosphorylation of c-MET at the activation loop site phospho-epitope [pY1230/1234/1235]. […] HGF binding to c-Met activated its' tyrosine kinase, AKT (S-473) and S-6 kinase (T-421/S424).
# [4] = test system: c-Met dependent signaling in MM-MC melanoma cells; experiment: as above; settings: MM-MC (c-Met mutation)
# Method: as §2, §3
# [5] = test system: MM-AN melanoma cells (minimal levels of c-MET); experiment: Cell growth analysis (cell counting)
# Method: For measuring the effect of SU11274 on growth of melanoma cells, MM-AN, MU, PM-WK, MM-RU, MM-MC and RPM-EP cells were plated at 6×10^4 cells in 60 mm dishes in MEM with 10% serum. After 24 hrs different concentrations of SU11274 were added and after 96 hrs cells were trypsinized and counted in a cell counter (Beckman Coulter). Each data point was repeated in triplicate.
# MU melanoma cells = experiment: Differentiation of melanoma cells (morphology); settings: 72 hrs with 5 μM SU11274
# Method: as §1
# The effect of si RNA against c-Met was also studied on the proliferation and differentiation of MU melanoma cells. […] SU11274 at 5 μM and 10 μM inhibited the growth of melanoma cells by 72% and 88% respectively. The inhibitory effect of SU11274 was more pronounced than si RNA since SU11274 is a potent and selective inhibitor of c-Met activity and function. […] Similar to SU11274 c-Met Si RNA 12 hrs after transfection induced an increase in MITF (4 fold) and several of the melanocyte differentiation antigens tyrosinase (4-fold), gp-100 (2-fold) and MART-1 (2-fold) which have been targets for immunotherapy. The increase in the level of various differentiation proteins was determined by densiometric anaylsis after treatment with c-Met si RNA.
smiles,measurement,setting,value
"Cc1[nH]c(/C=C2\C(=O)Nc3ccc(S(=O)(=O)N(C)c4cccc(Cl)c4)cc32)c(C)c1C(=O)N1CCN(C)CC1 [SU11274, (3Z)-N-(3-chlorophenyl)-3-({3,5-dimethyl-4-[(4-methylpiperazin-1-yl)carbonyl]-1H-pyrrol-2-yl}methylene)-N-methyl-2-oxo-2,3-dihydro-1H-indole-5-sulfonamide]",ROS response to HGF,[1],3%
same,change in morphology / differentiated phenotype,MM-MC melanoma cells,"became bipolar, tripolar or multipolar"
same,change in morphology / differentiated phenotype,MM-RU melanoma cells,"became bipolar, tripolar or multipolar"
same,c-Met phosphorylation,"[2]; all cell lines tested, HGF stimulation",Marked inhibition
same,"downstream phosphorylation of SHP2, AKT, ERK",[2]; degree varied by cell line,"affected downstream phosphorylation of SHP2, AKT, and to a lesser degree ERK"
same,BCLXL level,[3],downregulated
same,"HGF induced phosphorylation of c-Met, AKT and S6 kinase",[3]; 5 μM,completely inhibited
same,autophosphorylation of c-MET at activation loop site [pY1230/1234/1235],[3]; HGF stimulated,completely abolished
same,phosphorylation of c-Met and AKT,[3]; MU (no c-Met mutation),inhibited
same,phosphorylation of c-Met and AKT,[4],inhibited
same,IC50 of MM-AN relative to cell lines with abundant c-Met,[5],2 fold
same,IC50,"[5]; Homo sapiens, MM-AN, 96 hrs",5 µM
same,change in morphology / differentiated phenotype,MU melanoma cells,became very dendritic and differentiated
